This note sets out measurements from patent US20250009627A1, “THERAPEUTIC AND NON-THERAPEUTIC USES OF A PERSONAL CLEANSING COMPOSITION AND METHODS OF TREATMENT” (The Procter & Gamble Company, priority 2023, published 2025).

Series [1] deals with Escherichia coli ATCC25922. In words: In vitro Minimum Inhibitory Concentration (MIC) testing. It counts as cell-based. Conditions: pH of the assay of 7.2. On the procedure: (§1) The in vitro Minimum Inhibitory Concentration (MIC) Assay is a technique for determining the lowest concentration of a particular compound needed to prevent growth of microorganism. Different microorganisms were used to evaluate bacterial inhibition benefits for sulfate surfactants (Table 1) [table] Microorganisms are cultured and maintained in different culture medium. Each respective microorganism stock solution is diluted to 10^5 to 10^6 CFU/mL in a respective growth medium. 180 μl broth with the respective target microorganism is allocated into 96 well plates. Sodium oleyl sulfate prepared from two different synthesis batches (Ex. 1A and Ex. 1B), sodium octyl sulfate, sodium decyl sulfate, sodium lauryl sulfate were mixed respectively with in Deionized (DI) water. Octadecyl sulfate sodium was mixed in Dimethyl sulfoxide (DMSO). Two folds serial dilution are applied to each respective active by mixing 100 μl active stock solution (from 1 wt. %) plus 100 μl sterilized DI water or DMSO in 96 well plates (Nunc™ MicroWell™ 96-Well, CAT. No. 167008). For each assay, 0.001-1 wt. % treatment solutions are prepared for each individual active. Micropipettes are used to transfer 20 μl of actives at different concentration into each well with 180 μl broth with the respective target microorganisms. The 96 well plates with test microorganisms and test actives are incubated at 37° C. • a) E. coli are incubated for overnight 16 hours to 24 hour. • b) Corynebacterium minutissimum is incubated for two days. • c) Cutibacterium acnes is incubated for two days under anaerobic conditions. After incubation, microorganism growth is determined in presence of test actives by visual inspection or spectrophotometer by OD600 (absorbance at 600 nm using Tecan M200 Infinite Pro Microplate Reader) reading in comparison with positive control (broth with individual microorganism) and negative control (Broth only). MIC values are presented as parts per million (ppm) for different actives.

For series [2], the system named is Corynebacterium minutissimum ATCC 23348. Described as above. The series is classed as cell-based. On the procedure: as §1, with “plates. For instance, Corynebacterium minutissimum ATCC 23348 is cultured on tryptic soy agar (TSA) (Oxoid CM0131) over 24 hours. The single colonies are then transferred into 20 mL Tryptone Soy Broth (Oxoid CM0129B—TSB) and cultured overnight at 200 rpm/min, 37° C. Bacterial cell in broth will be diluted to 10^5 to 10^6 CFU/mL in TSB. 180 μL of this bacterium-MHB mix is added to a 96 well flat-bottomed plate (Nunc™ MicroWell™ 96-Well, CAT. No. 167008).” for “plates.”

The test system of series [3] is Cutibacterium acne SK137. Described as above. It counts as cell-based, Cutibacterium acnes. Particulars: two strains (SK137, 2044 NIA). The method, then:
as §1

In series [4] the test system is E. coli ATCC25922. The series can be described thus: Kill Rate Test in liquid (suspension time-kill testing). The series is classed as cell-based, Escherichia coli. Conditions: pH up to or equal to 4. An excerpt: The suspension time-kill test is a method to directly inoculate a liquid test substance with a high concentration of test microorganisms and then determine the percentage of killed over time, normally represented as log CFU reduction. The objective is to measure the biocidal potential of a liquid antimicrobial active or formulation.
E. coli ATCC25922 is streaked on Tryptic Soy Agar (TSA) Plates and cultured overnight. Pick up one colony of E. coli ATCC25922 and subculture bacterial cell in Tryptic Soy Broth (TSB) @ 200 rpm/min, 37° C. for 12-16 hours. After culturing, 1 mL bacterial cells in broth are pipetted into 2 mL tubes. Samples are centrifuged for 2 mins at 13000 rpm/min. Cell supernatant are discarded, and bacterial cells are resuspended in 1 mL Saline @ 10^8 to 10^9 CFU/mL. 1 mL liquid antimicrobial active to be tested under different concentrations is prepared: 20 mM acetate buffers are used to maintain the test solutions at a pH between 4.0 and 5.7. 10 mM phosphate buffer is used to maintain the test solution at a pH around 7.2. 20 mM Tris-HCl buffers are used to maintain the test solutions at a pH between 8.0 and 9.0. 1 mL saline (NaCl 0.9 wt. %) is used to as negative control in the study. 50 μl of 10^8 to 10^9 CFU/mL bacterial cells are added into each treatment and saline control. Samples were thoroughly mixed by vertexing 5 seconds. After incubating 30 minutes, 50 μl liquid from each treatment sample and saline control are pipetted out into for Total Viable Count Vial (NEOGEN). All measurements are done in duplicates. The Detection Time (DT) for Total Viable Count Vial is measured by Soleris® Next Generation (NEOGEN) system. DT values are averaged for each treatment and control for further calculation. DT time for each sample is converted to Log (viable cell number) by using algorithm generated for E. coli ATCC25922:
Biocidal potential of different actives at different concentrations and at different pHs in a liquid solution is measured by: […]

On series [5], the source says: The term “Biodegradable Test” as used herein means the test as described in the Test Method Section herein in which the test material is suspended in a phosphate buffered media containing an activated sludge inoculum and the formation of carbon dioxide measured via a closed-circuit respirometer. The test material is the sole carbon and energy source and under aerobic conditions microorganisms metabolize organic substances producing CO2 as the ultimate product. The biodegradability of the salt of the alkenyl sulfate ester, preferably sodium oleyl sulfate can be tested according to the following method. The Biodegradability Test Method is based on the Organization for Economic Co-operation and Development (OECD) 301B CO2 evolution biodegradation test method that screens chemicals for ready biodegradability in an aerobic aqueous medium. In this test, the test substance is suspended in a phosphate buffered nutrient salts media containing an activated sludge inoculum and the formation of carbon dioxide is measured via a closed-circuit respirometer. […] The test system is dosed with a known quantity of carbon and biodegradation is calculated as the percent of theoretical CO2 formation. […] Ready biodegradability is a regulator definition that is used to classify materials that meet the pass criteria as described in the OECD 301B guideline. […]

As to `CCCCCCCC/C=C\CCCCCCCCOS(=O)(=O)[O-].[Na+]` [sodium oleyl sulfate], in series [1], the “effect against gram-negative E. coli (in words)” value is on record as “ineffective”. Also, the “bacterial inhibition of Corynebacterium minutissimum (in words)” value in series [2] is “strong bacterial inhibition effects”. The “bacterial inhibition of Cutibacterium acne (in words)” value in series [3] is reported as “strong bacterial inhibition effects”. Further, in series [4], the “bactericidal activity against E. coli in solution (in words)” value is “some bactericidal activity”. Moreover, the ready biodegradability entry in series [5] is “meeting both requirements for ready biodegradability”.
